Data: ChEMBL document CHEMBL5143570, “Development of naringenin-O-carbamate derivatives as multi-target-directed liagnds for the treatment of Alzheimer's disease” (Bioorg Med Chem Lett, 2022)
Activity calls are given as the source filed them. No cut-off for these calls is given here.

Columns and labels:
[1] = molecular target: Cholinesterase (Homo sapiens, UniProt P06276); experiment: Inhibition of human serum BuChE using butyrylthiocholine as substrate incubated for 15 mins by DTNB reagent based Ellman's method; type: cell-free
[2] = system: BV-2; experiment: Cytotoxicity against mouse BV-2 cells assessed as increase in cell viability at 5 to 10 uM by MTT assay; type: toxicity, cell-based; details: bv-2, 10 µM, dose 5-10 µM
[3] = Effect on tau protein expression in pRK5-GFP-Tau plasmid transfected mouse HT-22 cells assessed as reduction in fluorescence intensity at 20 uM incubated for 24 hrs by fluorescence microscopic analysis (reference value: 36.8); type: functional
[4] = Inhibition of LPS-induced TNFalpha production in mouse BV-2 cells assessed as TNFalpha level at 10 uM by ELISA analysis relative to control; type: functional
[5] = system: L02; experiment: Cytotoxicity against human L02 cells assessed as decrease in cell viability measured upto 20 uM by MTT assay; type: toxicity, cell-based; details: l02, 20 µM
[6] = Metal chelating activity assessed as Cu2+-compound complex formation by measuring maximum absorption wavelength shift in the presence of CuCl2 by UV-visible spectrometric analysis
[7] = Antioxidant activity assessed as trolox equivalent of ORAC radical scavenging activity by ORAC-FL assay; type: functional
[8] = Permeability of compound at 100 ug/mL by PAMPA-BBB assay
[9] = molecular target: Amyloid-beta precursor protein (Homo sapiens) (UniProt P05067); experiment: Disaggregation of Cu2+-induced amyloid beta (1 to 42) (unknown origin) aggregation at 25 uM by thioflavin-T fluorescence method relative to control
[10] = Inhibition of LPS-induced TNFalpha production in mouse BV-2 cells assessed as TNFalpha level at 5 uM by ELISA analysis; type: functional
[11] = system: HT-22; experiment: Effect on tau protein expression in pRK5-GFP-Tau plasmid transfected mouse HT-22 cells assessed as fluorescence intensity by measuring decrease in GFP level incubated for 24 hrs by western blot analysis; type: functional, cell-based; details: dose 5-20 µM, DDE = dose-dependent effect
[12] = system: PC-12; experiment: Neuroprotective activity against H2O2-induced cytotoxicity in rat PC-12 cells assessed as increase in cell viability at 5 uM by MTT assay relative to control; type: functional
[13] = molecular target: Amyloid-beta precursor protein (Homo sapiens) (UniProt P05067); experiment: Inhibition of amyloid beta (1 to 42) (unknown origin) self-induced fibril formation at 25 uM incubated for 24 hrs by transmission electron microscopic analysis
[14] = Effect on APP protein expression in pEGFP-N1-APP plasmid transfected mouse HT-22 cells assessed as decrease in fluorescence intensity at 20 uM incubated for 24 hrs by fluorescence microscopic analysis (reference value: 30.7); type: functional
[15] = system: HT-22; experiment: Effect on APP protein expression in pEGFP-N1-APP plasmid transfected mouse HT-22 cells assessed as fluorescence intensity by measuring decrease in GFP level incubated for 24 hrs by western blot analysis; type: functional, cell-based; details: dose 5-20 µM, DDE = dose-dependent effect
[16] = molecular target: Butyrylcholinesterase (Rattus norvegicus, UniProt Q9JKC1); experiment: Inhibition of rat serum Butyrylcholine esterase using butyrylthiocholine as substrate incubated for 15 mins by DTNB reagent based Ellman's method; type: cell-free
[17] = Cytotoxicity against mouse HT-22 cells assessed as reduction in cell viability by MTT assay; type: toxicity, cell-based
[18] = Effect on tau protein expression in pRK5-GFP-Tau P301L plasmid transfected mouse HT-22 cells assessed as reduction in fluorescence intensity at 20 uM by fluorescence microscopic analysis (reference value: 35.0); type: functional
[19] = Effect on tau protein expression in pRK5-GFP-Tau plasmid transfected mouse HT-22 cells assessed as reduction in fluorescence intensity at 5 uM incubated for 24 hrs by fluorescence microscopic analysis (reference value: 36.8); type: functional
[20] = organism: Rattus norvegicus; experiment: Selectivity index, ratio of IC50 for inhibition of rat serum butyrylcholine esterase to IC50 for inhibition of rat cortex AChE
[21] = system: HT-22; experiment: Effect on tau protein expression in pRK5-GFP-Tau P301L plasmid transfected mouse HT-22 cells assessed as fluorescence intensity by measuring decrease in GFP level by western blot analysis; type: functional, cell-based; details: dose 5-20 µM, DDE = dose-dependent effect
[22] = molecular target: T1, Acetylcholinesterase (Homo sapiens, UniProt P22303); experiment: Pseudo-irreversible inhibition of human AChE assessed as restoration of enzyme activity at 0.1 time of IC50 concentration incubated for 120 mins by dilution method relative to control; set-up: scale not given: the % may be the effect or the level left
[23] = system: L02; experiment: Cytotoxicity against human L02 cells assessed as decrease in cell viability at 40 uM by MTT assay relative to control; type: toxicity, cell-based; details: l02, 40 µM
[24] = molecular target: Amyloid-beta precursor protein (Homo sapiens) (UniProt P05067); experiment: Inhibition of amyloid beta (1 to 42 ) (unknown origin) self-induced aggregation at 25 uM by thioflavin-T fluorescence method relative to control
[25] = molecular target: T1, Acetylcholinesterase; experiment: Inhibition of human erythrocyte AChE using acetylthiocholine as substrate incubated for 15 mins by DTNB reagent based Ellman's method; type: cell-based
[26] = system: L02; experiment: Hepatoprotective activity against H2O2-induced cytotoxicity in human L02 cells assessed as increase in cell viability at 10 uM by MTT assay; type: functional
[27] = organism: Homo sapiens; experiment: Selectivity index, ratio of IC50 for inhibition of human serum BuChE to IC50 for inhibition of human erythrocyte AChE
[28] = system: PC-12; experiment: Cytotoxicity against rat PC-12 cells assessed as reduction in cell viability measured upto 40 uM incubated for 72 hrs by MTT assay; type: toxicity, cell-based; details: pc-12, 72 h
[29] = Effect on APP protein expression in pEGFP-N1-APP plasmid transfected mouse HT-22 cells assessed as decrease in fluorescence intensity at 10 uM incubated for 24 hrs by fluorescence microscopic analysis (reference value: 30.7); type: functional
[30] = Inhibition of LPS-induced TNFalpha production in mouse BV-2 cells assessed as TNFalpha level at 10 uM by ELISA analysis; type: functional

Chain of Amyloid-beta precursor protein (Homo sapiens) (P05067 whole entry): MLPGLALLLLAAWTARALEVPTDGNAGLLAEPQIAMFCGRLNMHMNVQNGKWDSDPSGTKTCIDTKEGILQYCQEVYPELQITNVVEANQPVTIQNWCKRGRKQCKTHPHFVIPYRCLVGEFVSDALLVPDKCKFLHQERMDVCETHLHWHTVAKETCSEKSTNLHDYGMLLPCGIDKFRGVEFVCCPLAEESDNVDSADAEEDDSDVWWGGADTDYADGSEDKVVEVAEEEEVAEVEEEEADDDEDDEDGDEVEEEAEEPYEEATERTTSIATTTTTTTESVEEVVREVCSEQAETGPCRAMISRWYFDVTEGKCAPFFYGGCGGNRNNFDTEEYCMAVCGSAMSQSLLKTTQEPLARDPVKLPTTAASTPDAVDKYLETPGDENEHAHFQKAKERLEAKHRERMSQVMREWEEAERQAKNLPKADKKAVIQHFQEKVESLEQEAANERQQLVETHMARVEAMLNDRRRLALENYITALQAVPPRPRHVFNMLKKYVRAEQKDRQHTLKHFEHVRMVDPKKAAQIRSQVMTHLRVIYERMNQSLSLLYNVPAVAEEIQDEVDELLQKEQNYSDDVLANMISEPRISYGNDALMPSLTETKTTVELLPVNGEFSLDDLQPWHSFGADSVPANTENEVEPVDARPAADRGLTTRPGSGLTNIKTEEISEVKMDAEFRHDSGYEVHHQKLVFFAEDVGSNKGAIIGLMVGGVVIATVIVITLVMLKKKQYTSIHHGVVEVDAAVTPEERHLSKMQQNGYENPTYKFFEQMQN
T1 sequence (P22303 whole entry): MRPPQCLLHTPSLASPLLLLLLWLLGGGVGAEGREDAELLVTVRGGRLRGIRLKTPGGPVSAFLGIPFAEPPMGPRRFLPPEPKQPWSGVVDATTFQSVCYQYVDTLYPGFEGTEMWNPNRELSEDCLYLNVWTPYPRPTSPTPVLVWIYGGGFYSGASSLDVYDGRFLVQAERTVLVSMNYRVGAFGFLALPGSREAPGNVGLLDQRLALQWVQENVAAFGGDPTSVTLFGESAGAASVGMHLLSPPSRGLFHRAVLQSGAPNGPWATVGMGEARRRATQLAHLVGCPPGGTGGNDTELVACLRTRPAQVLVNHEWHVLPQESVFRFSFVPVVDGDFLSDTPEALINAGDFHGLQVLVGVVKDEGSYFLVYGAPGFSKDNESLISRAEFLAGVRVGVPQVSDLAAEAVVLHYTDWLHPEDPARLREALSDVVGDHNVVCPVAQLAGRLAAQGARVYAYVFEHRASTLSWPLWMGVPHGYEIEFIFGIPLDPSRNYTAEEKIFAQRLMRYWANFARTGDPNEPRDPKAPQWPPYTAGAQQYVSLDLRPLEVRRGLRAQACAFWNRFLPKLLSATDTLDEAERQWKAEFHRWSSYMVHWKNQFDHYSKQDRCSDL
Chain of Cholinesterase (P06276 whole entry): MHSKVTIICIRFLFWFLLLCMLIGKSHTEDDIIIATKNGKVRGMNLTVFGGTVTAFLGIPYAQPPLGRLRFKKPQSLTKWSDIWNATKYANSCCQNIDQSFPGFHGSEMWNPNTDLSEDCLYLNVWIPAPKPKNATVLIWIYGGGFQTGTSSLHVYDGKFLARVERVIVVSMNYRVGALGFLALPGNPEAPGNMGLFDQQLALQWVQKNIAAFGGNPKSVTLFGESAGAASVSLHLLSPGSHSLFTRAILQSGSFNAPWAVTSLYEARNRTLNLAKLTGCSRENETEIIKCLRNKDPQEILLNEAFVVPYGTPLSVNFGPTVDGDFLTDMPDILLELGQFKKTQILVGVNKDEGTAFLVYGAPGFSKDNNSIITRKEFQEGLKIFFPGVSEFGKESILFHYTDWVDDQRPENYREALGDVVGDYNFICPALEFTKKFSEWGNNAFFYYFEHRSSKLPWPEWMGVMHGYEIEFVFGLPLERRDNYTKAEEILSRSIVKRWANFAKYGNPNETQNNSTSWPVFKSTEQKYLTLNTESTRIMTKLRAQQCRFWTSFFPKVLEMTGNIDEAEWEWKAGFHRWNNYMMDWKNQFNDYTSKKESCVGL
Chain of Butyrylcholinesterase (Q9JKC1 whole entry): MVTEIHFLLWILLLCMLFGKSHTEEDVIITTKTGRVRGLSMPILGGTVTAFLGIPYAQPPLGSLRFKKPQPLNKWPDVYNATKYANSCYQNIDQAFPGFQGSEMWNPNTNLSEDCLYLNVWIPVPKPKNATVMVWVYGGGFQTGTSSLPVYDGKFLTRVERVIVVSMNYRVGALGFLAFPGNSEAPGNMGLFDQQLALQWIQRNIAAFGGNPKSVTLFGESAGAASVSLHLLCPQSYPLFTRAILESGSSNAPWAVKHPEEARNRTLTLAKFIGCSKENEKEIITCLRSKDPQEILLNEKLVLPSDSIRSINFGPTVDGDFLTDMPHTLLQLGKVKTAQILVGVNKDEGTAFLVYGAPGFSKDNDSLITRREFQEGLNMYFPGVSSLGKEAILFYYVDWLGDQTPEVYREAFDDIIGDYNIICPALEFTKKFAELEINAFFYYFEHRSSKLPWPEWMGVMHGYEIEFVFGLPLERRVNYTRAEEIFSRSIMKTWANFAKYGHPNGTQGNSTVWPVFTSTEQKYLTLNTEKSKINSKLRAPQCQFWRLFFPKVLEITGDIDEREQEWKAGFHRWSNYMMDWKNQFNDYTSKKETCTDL

CCN(C)C(=O)Oc1ccc(C2CC(=O)c3c(O)cc(OC(=O)N(C)CC)cc3O2)cc1 (stereo not given)
IC50 [1]: 20.3 µM | Activity [2]: Non-Toxic | Flu intensity [3]: 6.48 | inhibition at 10 µM [4]: 68.7% | Activity [5]: Non-Toxic | Activity [6]: Active | Activity [7]: 1 | Papp at 100 ug/mL [8]: 16.8 ×10⁻⁶ cm/s | Activity [9]: 54.4% | Activity [10]: 848 pg/mL | Activity [11]: Dde | Activity [12]: 63.8% | inhibition [13]: Active | Flu intensity [14]: 15.5 | Activity [15]: Dde | IC50 [16]: 30.6 µM | IC50 [17]: 289 µM | Flu intensity [18]: 3.88 | Flu intensity [19]: 25.9 | Ratio IC50 [20]: 4.9 | Activity [21]: Dde | Activity [22]: 81.7% | Activity [23]: 73.2% | inhibition [24]: 60.9% | IC50 [25]: 9.7 µM | Activity [26]: 68.7% | Ratio IC50 [27]: 2.1 | Activity [28]: Non-Toxic | Flu intensity [29]: 15.5 | Activity [30]: 532 pg/mL
